Laboratory results as given in US9278962B2 (Cytokinetics, Inc., priority 2011, dated 2016).

Tested on: rabbit skeletal myofibrils (approximately 90% fast fibers)
Assay: Activation of fast skeletal myofibrils (PUMA coupled-enzyme ATPase assay, AC1.4)
Format: biochemical
Details: Table 2; concentration at which the compound increased enzymatic activity by 40%; calcium at pCa25

SMILES	Mean AC1.4
COc1cccc(Cc2nsc(NCCc3cccc(F)c3)n2)c1 [[2-(3-fluorophenyl)ethyl]{3-[(3-methoxyphenyl)methyl](1,2,4-thiadiazol-5-yl)}amine]	C (C=10-20 uM)
Nc1ccc(CCNc2nc(Cc3ccc(F)cc3)ns2)cc1 [[2-(4-aminophenyl)ethyl]{3-[(4-fluorophenyl)methyl](1,2,4-thiadiazol-5-yl)}amine]	D (D=>20 uM)
CC(C)Cc1nsc(NCC(C)(C)c2ccc(Cl)cc2)n1 [[2-(4-chlorophenyl)-2-methylpropyl][3-(2-methylpropyl)(1,2,4-thiadiazol-5-yl)]amine]	B (B=1-10 uM)
COc1cccc(Cc2nsc(NCC(C)(C)c3ccc(Cl)cc3)n2)c1 [[2-(4-chlorophenyl)-2-methylpropyl]{3-[(3-methoxyphenyl)methyl](1,2,4-thiadiazol-5-yl)}amine]	A (A=<1 uM)
CC(C)(CNc1nc(Cc2ccc(F)cc2)ns1)c1ccc(Cl)cc1 [[2-(4-chlorophenyl)-2-methylpropyl]{3-[(4-fluorophenyl)methyl](1,2,4-thiadiazol-5-yl)}amine]	A (A=<1 uM)
COc1ccc(Cc2nsc(NCC(C)(C)c3ccc(Cl)cc3)n2)cc1 [[2-(4-chlorophenyl)-2-methylpropyl]{3-[(4-methoxyphenyl)methyl](1,2,4-thiadiazol-5-yl)}amine]	A (A=<1 uM)
CC(Cc1ccc(Cl)cc1)Nc1nc(Cc2ccc(F)cc2)ns1 (stereo not drawn) [[2-(4-chlorophenyl)-isopropyl]{3-[(4-fluorophenyl)methyl](1,2,4-thiadiazol-5-yl)}amine]	D (D=>20 uM)
COc1cccc(Cc2nsc(NCCc3ccc(Cl)cc3)n2)c1 [[2-(4-chlorophenyl)ethyl]{3-[(3-methoxyphenyl)methyl](1,2,4-thiadiazol-5-yl)}amine]	B (B=1-10 uM)
Clc1ccc(CCNc2nc(Cc3ccc(Cl)cc3)ns2)cc1 [[2-(4-chlorophenyl)ethyl]{3-[(4-chlorophenyl)methyl](1,2,4-thiadiazol-5-yl)}amine]	C (C=10-20 uM)
Fc1ccc(Cc2nsc(NCCc3ccc(Cl)cc3)n2)cc1 [[2-(4-chlorophenyl)ethyl]{3-[(4-fluorophenyl)methyl](1,2,4-thiadiazol-5-yl)}amine]	B (B=1-10 uM)
Cc1ccc(Cc2nsc(NCCc3ccc(Cl)cc3)n2)cc1 [[2-(4-chlorophenyl)ethyl]{3-[(4-methylphenyl)methyl](1,2,4-thiadiazol-5-yl)}amine]	C (C=10-20 uM)
COc1cccc(Cc2nsc(NCC(C)c3ccc(Cl)cc3)n2)c1 (stereo not drawn) [[2-(4-chlorophenyl)propyl]{3-[(3-methoxyphenyl)methyl](1,2,4-thiadiazol-5-yl)}amine]	A (A=<1 uM)
CC(CNc1nc(Cc2ccc(F)cc2)ns1)c1ccc(Cl)cc1 (stereo not drawn) [[2-(4-chlorophenyl)propyl]{3-[(4-fluorophenyl)methyl](1,2,4-thiadiazol-5-yl)}amine]	B (B=1-10 uM)
CC(C)(CNc1nc(-c2ccccn2)ns1)c1ccc(F)cc1 [[2-(4-fluorophenyl)-2-methylpropyl](3-(2-pyridyl)(1,2,4-thiadiazol-5-yl))amine]	B (B=1-10 uM)
CC(C)(CNc1nc(-c2cccnc2)ns1)c1ccc(F)cc1 [[2-(4-fluorophenyl)-2-methylpropyl](3-(3-pyridyl)(1,2,4-thiadiazol-5-yl))amine]	B (B=1-10 uM)
CC(C)(CNc1nc(-c2ccncc2)ns1)c1ccc(F)cc1 [[2-(4-fluorophenyl)-2-methylpropyl](3-(4-pyridyl)(1,2,4-thiadiazol-5-yl))amine]	B (B=1-10 uM)
CC(C)(CNc1nc(N2CCOCC2)ns1)c1ccc(F)cc1 [[2-(4-fluorophenyl)-2-methylpropyl](3-morpholin-4-yl(1,2,4-thiadiazol-5-yl))amine]	D (D=>20 uM)
CC(C)(CNc1nc(-c2ccccc2)ns1)c1ccc(F)cc1 [[2-(4-fluorophenyl)-2-methylpropyl](3-phenyl(1,2,4-thiadiazol-5-yl))amine]	B (B=1-10 uM)
CC(C)(CNc1nc(-c2cn[nH]c2)ns1)c1ccc(F)cc1 [[2-(4-fluorophenyl)-2-methylpropyl](3-pyrazol-4-yl(1,2,4-thiadiazol-5-yl))amine]	B (B=1-10 uM)
C=Cc1nsc(NCC(C)(C)c2ccc(F)cc2)n1 [[2-(4-fluorophenyl)-2-methylpropyl](3-vinyl(1,2,4-thiadiazol-5-yl))amine]	B (B=1-10 uM)
CC(C)(CNc1ncns1)c1ccc(F)cc1 [[2-(4-fluorophenyl)-2-methylpropyl]-1,2,4-thiadiazol-5-ylamine]	B (B=1-10 uM)

SMILES	Mean AC1.4
Cn1cc(-c2nsc(NCC(C)(C)c3ccc(F)cc3)n2)cn1 [[2-(4-fluorophenyl)-2-methylpropyl][3-(1-methylpyrazol-4-yl)(1,2,4-thiadiazol-5-yl]	B (B=1-10 uM)
CC(C)(CNc1nc(CCN2CCCCC2)ns1)c1ccc(F)cc1 [[2-(4-fluorophenyl)-2-methylpropyl][3-(2-piperidylethyl)(1,2,4-thiadiazol-5-yl)]amine]	D (D=>20 uM)
COCCCc1nsc(NCC(C)(C)c2ccc(F)cc2)n1 [[2-(4-fluorophenyl)-2-methylpropyl][3-(3-methoxypropyl)(1,2,4-thiadiazol-5-yl)]amine]	B (B=1-10 uM)
COc1cncc(-c2nsc(NCC(C)(C)c3ccc(F)cc3)n2)c1 [[2-(4-fluorophenyl)-2-methylpropyl][3-(5-methoxy(3-pyridyl))(1,2,4-thiadiazol-5-yl)]amine]	B (B=1-10 uM)
COc1ccc(-c2nsc(NCC(C)(C)c3ccc(F)cc3)n2)cn1 [[2-(4-fluorophenyl)-2-methylpropyl][3-(6-methoxy(3-pyridyl))(1,2,4-thiadiazol-5-yl)]amine]	B (B=1-10 uM)
CC(C)(CNc1nc(CN2CCNCC2)ns1)c1ccc(F)cc1 [[2-(4-fluorophenyl)-2-methylpropyl][3-(piperazinylmethyl)(1,2,4-thiadiazol-5-yl)]amine]	C (C=10-20 uM)
CC(C)(CNc1nc(CN2CCCCC2)ns1)c1ccc(F)cc1 [[2-(4-fluorophenyl)-2-methylpropyl][3-(piperidylmethyl)(1,2,4-thiadiazol-5-yl)]amine]	D (D=>20 uM)
CC(C)(CNc1nc(CN2CCCC2)ns1)c1ccc(F)cc1 [[2-(4-fluorophenyl)-2-methylpropyl][3-(pyrrolidinylmethyl)(1,2,4-thiadiazol-5-yl)]amine]	D (D=>20 uM)
CN1CCN(CCc2nsc(NCC(C)(C)c3ccc(F)cc3)n2)CC1 [[2-(4-fluorophenyl)-2-methylpropyl]{3-[2-(4-methylpiperazinyl)ethyl](1,2,4-thiadiazol-5-yl)}amine]	C (C=10-20 uM)
COCCNc1nsc(NCC(C)(C)c2ccc(F)cc2)n1 [[2-(4-fluorophenyl)-2-methylpropyl]{3-[(2-methoxyethyl)amino](1,2,4-thiadiazol-5-yl)}amine]	D (D=>20 uM)
COc1cccc(C(C)c2nsc(N(C)CC(C)(C)c3ccc(F)cc3)n2)c1 (stereo not drawn) [[2-(4-fluorophenyl)-2-methylpropyl]{3-[(3-methoxyphenyl)ethyl](1,2,4-thiadiazol-5-yl)}methylamine]	D (D=>20 uM)
COc1cccc(Cc2nsc(NCC(C)(C)c3ccc(F)cc3)n2)c1 [[2-(4-fluorophenyl)-2-methylpropyl]{3-[(3-methoxyphenyl)methyl](1,2,4-thiadiazol-5-yl)}amine]	A (A=<1 uM)
COc1cccc(Cc2nsc(N(C)CC(C)(C)c3ccc(F)cc3)n2)c1 [[2-(4-fluorophenyl)-2-methylpropyl]{3-[(3-methoxyphenyl)methyl](1,2,4-thiadiazol-5-yl)}methylamine]	D (D=>20 uM)
COc1ccc(Cc2nsc(NCC(C)(C)c3ccc(F)cc3)n2)cc1 [[2-(4-fluorophenyl)-2-methylpropyl]{3-[(4-methoxyphenyl)methyl](1,2,4-thiadiazol-5-yl)}amine]	A (A=<1 uM)
CN1CCN(Cc2nsc(NCC(C)(C)c3ccc(F)cc3)n2)CC1 [[2-(4-fluorophenyl)-2-methylpropyl]{3-[(4-methylpiperazinyl)methyl](1,2,4-thiadiazol-5-yl)}amine]	C (C=10-20 uM)
CC(C)Nc1nsc(NCC(C)(C)c2ccc(F)cc2)n1 [[2-(4-fluorophenyl)-2-methylpropyl]{3-[(methylethyl)amino](1,2,4-thiadiazol-5-yl)}amine]	C (C=10-20 uM)
COc1cccc(Cc2nsc(NCCc3ccc(F)cc3)n2)c1 [[2-(4-fluorophenyl)ethyl]{3-[(3-methoxyphenyl)methyl](1,2,4-thiadiazol-5-yl)}amine]	B (B=1-10 uM)
Fc1ccc(CCNc2nc(Cc3ccc(F)cc3)ns2)cc1 [[2-(4-fluorophenyl)ethyl]{3-[(4-fluorophenyl)methyl](1,2,4-thiadiazol-5-yl)}amine]	B (B=1-10 uM)
COc1ccc(CCNc2nc(Cc3cccc(OC)c3)ns2)cc1 [[2-(4-methoxyphenyl)ethyl]{3-[(3-methoxyphenyl)methyl](1,2,4-thiadiazol-5-yl)}amine]	D (D=>20 uM)
COc1ccc(CCNc2nc(Cc3ccc(C)cc3)ns2)cc1 [[2-(4-methoxyphenyl)ethyl]{3-[(4-methylphenyl)methyl](1,2,4-thiadiazol-5-yl)}amine]	D (D=>20 uM)
CN(C)CCc1nsc(NCC(C)(C)c2ccc(F)cc2)n1 [[2-(5-{[2-(4-fluorophenyl)-2-methylpropyl]amino}(1,2,4-thiadiazol-3-yl))ethyl]dimethylamine]	D (D=>20 uM)
